Measurements reported in publication PMC6893700 (Viruses, 2019).
Where two headings read alike, the source gives them in different places.

Experiments:
ZIKV strain PAN2016 [1] = experiment: Plaque reduction inhibition assay, ZIKV PAN2016 in Vero E6 cells; format: cell-based; conditions: Zika virus, Vero C1008, Vero E6 cells
ZIKV strain R116265 = experiment: Plaque reduction inhibition assay, ZIKV R116265 in Vero E6 cells; format: cell-based; conditions: Zika virus, Vero C1008
ZIKV strain PAN2015 = experiment: Plaque reduction inhibition assay, ZIKV PAN2015 in Vero E6 cells; format: cell-based; conditions: Zika virus, Vero C1008
ZIKV strain FLR [2] = experiment: Plaque reduction inhibition assay, ZIKV FLR in Vero E6 cells; format: cell-based; conditions: Zika virus, Vero C1008; plaque reduction, Vero E6 cells; read-out: IC50 FLR
ZIKV strain R103451 = experiment: Plaque reduction inhibition assay, ZIKV R103451 in Vero E6 cells; format: cell-based; conditions: Zika virus, Vero C1008; plaque reduction, Vero E6 cells; read-out: IC50 R103451
ZIKV strain PRVABC59 [3] = experiment: Plaque reduction inhibition assay, ZIKV PRVABC59 in Vero E6 cells; format: cell-based; conditions: Zika virus, Vero C1008; plaque reduction, Vero E6 cells
ZIKV strain PLCal_ZV = experiment: Plaque reduction inhibition assay, ZIKV PLCal_ZV in Vero E6 cells; format: cell-based; conditions: Zika virus, Vero C1008; plaque reduction, Vero E6 cells; read-out: IC50 PLCal_ZV
[4] = tested on: ZIKV mosquito strain MEX 2–81; experiment: Plaque reduction inhibition assay, ZIKV MEX 2–81 in Vero E6 cells; format: cell-based; conditions: Zika virus, Vero C1008; plaque reduction, Vero E6 cells; read-out: IC50 MEX 2–81
[5] = tested on: ZIKV rhesus macaque strain MR 766; experiment: Plaque reduction inhibition assay, ZIKV MR 766 in Vero E6 cells; format: cell-based; conditions: Zika virus, Vero C1008, in Macaca mulatta; plaque reduction, Vero E6 cells; read-out: IC50 MR 766
DENV-1-V1792 = experiment: Plaque reduction inhibition assay, DENV-1 in LLC-MK2 cells; format: cell-based; conditions: Dengue virus, DENV1
DENV-2-V594 = experiment: Plaque reduction inhibition assay, DENV-2 in LLC-MK2 cells; format: cell-based; conditions: Dengue virus, DENV2
DENV-3-V1043 = experiment: Plaque reduction inhibition assay, DENV-3 in LLC-MK2 cells; format: cell-based; conditions: Dengue virus, DENV3
DENV-4-PR 06-65-740 = experiment: Plaque reduction inhibition assay, DENV-4 in LLC-MK2 cells; format: cell-based; conditions: Dengue virus, DENV4
ZIKV (PAN2016) = experiment: Time-of-addition experiment, ZIKV PAN2016 in Vero E6 cells; format: cell-based, Zika virus (ZIKV); conditions: for inhibition at 7.5 µM: Zika virus, Vero C1008, 1 h
[6] = target: ZIKV full-length E protein (Zika virus, UniProt A0A024B7W1); format: binding; conditions: ELISA
ZIKV full-length E protein, sequence (A0A024B7W1 291-794): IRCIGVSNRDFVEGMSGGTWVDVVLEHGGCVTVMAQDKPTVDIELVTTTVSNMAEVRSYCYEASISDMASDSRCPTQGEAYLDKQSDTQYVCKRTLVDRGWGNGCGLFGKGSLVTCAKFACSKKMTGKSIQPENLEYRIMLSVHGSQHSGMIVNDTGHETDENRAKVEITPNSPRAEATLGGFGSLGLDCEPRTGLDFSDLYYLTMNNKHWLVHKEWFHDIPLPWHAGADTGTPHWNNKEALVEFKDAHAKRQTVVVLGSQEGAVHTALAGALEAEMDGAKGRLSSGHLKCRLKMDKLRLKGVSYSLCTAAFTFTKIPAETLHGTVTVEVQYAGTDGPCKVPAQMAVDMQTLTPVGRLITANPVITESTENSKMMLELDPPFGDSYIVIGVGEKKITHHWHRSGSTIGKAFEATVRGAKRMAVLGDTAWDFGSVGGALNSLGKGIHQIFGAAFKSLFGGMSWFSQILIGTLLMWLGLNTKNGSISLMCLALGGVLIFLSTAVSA

[7] = target: T1, ZIKV envelope protein domain III (EDIII) protein (Zika virus, UniProt A0A024B7W1); format: binding; conditions: ELISA
T1 construct: E residues 298–409 fused with a C-terminal human Fc; made in house
T1 sequence (A0A024B7W1 588-699): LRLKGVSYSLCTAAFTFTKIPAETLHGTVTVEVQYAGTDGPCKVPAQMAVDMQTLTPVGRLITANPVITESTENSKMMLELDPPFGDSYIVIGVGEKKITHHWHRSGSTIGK

ZIKV strain PAN2016 [8] = format: cell-based, Zika virus (ZIKV)
ZIKV strain FLR [9] = format: cell-based, Zika virus (ZIKV); conditions: ZIKV FLR
ZIKV strain PRVABC59 [10] = format: cell-based, Zika virus (ZIKV)
in vitro [11] = conditions: African green monkey
in vitro [12] = conditions: rhesus monkey
Vero E6 cells [13] = experiment: Initial screening: cytotoxicity observed under a microscope; conditions: initial screening at 20 µM
[14] = Combinatorial cytotoxicity of gossypol with other natural products, CCK8; conditions: African green monkey
Vero E6 cells [15] = experiment: as above; conditions: Vero E6; for Fold of Enhancement of cytotoxicity (natural product with gossypol): (CC50 alone)/(CC50 in the mixture)—1

Which IC90 (ZIKV strain PAN2016 [1]; 90% plaque reduction, read-out: IC90 against ZIKV PAN2016 strain) does the source give for `C[C@@H]1CC[C@@]2(OC1)O[C@H]1[C@@H](O)[C@H]3[C@@H]4CC[C@H]5C[C@@H](O[C@@H]6O[C@H](CO)[C@H](O[C@@H]7O[C@H](CO)[C@@H](O)[C@H](O[C@@H]8OC[C@@H](O)[C@H](O)[C@H]8O)[C@H]7O[C@@H]7O[C@H](CO)[C@H](O)[C@H](O[C@@H]8O[C@H](CO)[C@@H](O)[C@H](O)[C@H]8O)[C@H]7O)[C@H](O)[C@H]6O)[C@H](O)C[C@]5(C)[C@H]4CC[C@]3(C)[C@H]1[C@@H]2C` [Digitonin, digitonin] here?
Its IC90 is about 7.91 µM.

And the IC50 (ZIKV strain PAN2016 [1]; plaque reduction, read-out: IC50 PAN2016)?
The IC50 was 4.31 ± 0.23 µM.

What about the IC50 (ZIKV strain R116265) of the same molecule?
The IC50 was 6.52 ± 0.59 µM.

What about the IC50 (ZIKV strain PAN2015) of the same molecule?
Its IC50 is 5 ± 0.01 µM.

What about the IC50 (ZIKV strain FLR [2]) of the same molecule?
The IC50 was 3.34 ± 0.22 µM.

What about the IC50 (ZIKV strain R103451) of the same molecule?
Its IC50 is 4.3 ± 0.43 µM.

And the IC50 (ZIKV strain PRVABC59 [3])?
The IC50 was 3.76 ± 1.12 µM.

What about the IC50 (ZIKV strain PLCal_ZV) of the same molecule?
Its IC50 is 3.19 ± 0.25 µM.

And the IC50 [4]?
The IC50 was 3.84 ± 0.12 µM.

What about the IC50 [5] of the same molecule?
Its IC50 is 3.77 ± 0.31 µM.

What about the IC50 (DENV-1-V1792) of the same molecule?
Its IC50 is 5.21 ± 0.35 µM.

What about the IC50 (DENV-2-V594) of the same molecule?
Its IC50 is 6.56 ± 0.21 µM.

What about the IC50 (DENV-3-V1043) of the same molecule?
The IC50 was 4.07 ± 0.83 µM.

And the IC50 (DENV-4-PR 06-65-740)?
The IC50 was 6.44 ± 0.34 µM.

What about the inhibition at 7.5 µM (ZIKV (PAN2016); read-out: inhibition of ZIKV infection, step c: cotreatment at 4 °C (attachment)) of the same molecule?
The inhibition at 7.5 µM was 49 to 74%.

And the inhibition at 7.5 µM (ZIKV (PAN2016); read-out: inhibition of ZIKV infection, step d: cotreatment at 37 °C)?
Its inhibition at 7.5 µM is at least 94%.

What about the inhibition at 7.5 µM (ZIKV (PAN2016); read-out: inhibition of ZIKV infection, step e: penetration (membrane fusion)) of the same molecule?
Its inhibition at 7.5 µM is 49 to 74%.

And the inhibition at 7.5 µM (ZIKV (PAN2016); read-out: inhibition of ZIKV infection, step f: postentry stage)?
Its inhibition at 7.5 µM is 49 to 74%.

What about the “inhibition of ZIKV infection, step a: pretreatment of ZIKV” value (ZIKV (PAN2016); natural product with ZIKV 37 °C 1 h before cells, gossypol 15 µM, curcumin 30 µM, digitonin 7.5 µM, conessine 30 µM) of the same molecule?
Its value is “no effect”.

And the “binding to ZIKV full-length E protein (in words)” value [6]?
Its value is “did not bind”.

What about the “binding to ZIKV EDIII protein (in words)” value [7] of the same molecule?
The value was “did not bind”.

What about the “Fold of Enhancement (natural product with gossypol)” value (ZIKV strain PAN2016 [8]; ZIKV PAN2016, (IC50 alone)/(IC50 in the mixture)—1) of the same molecule?
Its value is 2.21.

And the “CI (combination index) of gossypol with the named natural product” value (“CI (combination index) of gossypol” below) (ZIKV strain PAN2016 [8]; ZIKV PAN2016, CI < 1 synergy)?
The value was 0.60.

What about the IC50 (ZIKV strain PAN2016 [8]; Zika virus, Vero C1008, ZIKV PAN2016, Vero E6, natural product without combination, read-out: IC50 Alone) of the same molecule?
Its IC50 is 4.85 ± 0.24 µM.

What about the “CI (combination index) of gossypol” value (ZIKV strain FLR [9]; CI < 1 synergy) of the same molecule?
Its value is 0.95.

What about the IC50 (ZIKV strain FLR [9]; Zika virus, Vero C1008, Vero E6, natural product without combination, read-out: IC50 Alone) of the same molecule?
Its IC50 is 3.86 ± 0.02 µM.

What about the “Fold of Enhancement (natural product with gossypol)” value (ZIKV strain PRVABC59 [10]; ZIKV PRVABC59, (IC50 alone)/(IC50 in the mixture)—1) of the same molecule?
The value was 5.98.

What about the “CI (combination index) of gossypol” value (ZIKV strain PRVABC59 [10]; ZIKV PRVABC59, CI < 1 synergy) of the same molecule?
Its value is 0.29.

What about the IC50 (ZIKV strain PRVABC59 [10]; Zika virus, Vero C1008, ZIKV PRVABC59, Vero E6, natural product without combination, read-out: IC50 Alone) of the same molecule?
Its IC50 is 3.84 ± 0.81 µM.

And the CC50 at 3 days (in vitro [11])?
Its CC50 at 3 days is 56.3 ± 1.2 µM.

What about the CC50 at 3 days (in vitro [12]) of the same molecule?
Its CC50 at 3 days is 59.02 ± 0.33 µM.

What about the “cytotoxicity in Vero E6 cells observed under a microscope” value (Vero E6 cells [13]) of the same molecule?
Its value is “no obvious cytotoxicity”.

What about the CC50 at 3 days [14] of the same molecule?
Its CC50 at 3 days is 50.63 ± 0.22 µM.

What about the “Fold of Enhancement of cytotoxicity (natural product with gossypol)” value (Vero E6 cells [15]) of the same molecule?
Its value is 2.60.

And the “Fold of Enhancement of cytotoxicity (natural product with gossypol)” value (Vero E6 cells [15]; listed as digitonin)?
The value was “about 2.60”.

What about the “CI (combination index, cytotoxicity) of gossypol with the named natural product” value (Vero E6 cells [15]; based on CC50) of the same molecule?
Its value is 1.36.
